Data on five compounds can be found in patent publication US20230302031A1, “Modulators Of Purinergic Receptors and Related Immune Checkpoint For Treating Acute Respiratory Distress Syndrome” (priority 2020, published 2023).

Like-named read-outs stand apart in the source and are kept apart here.

For data set [1], the system named is MDMs. Kind of data set: IRF5 expression in MDMs (western blot). The data set is classed as cell-based, human. The note with it: FIG. 6N. (Immunoblotting shows a protein as a band on a membrane.)
Data set [2] relates to human monocyte derived macrophages (MDMs). Briefly: IL-1β release from monocyte derived macrophages (MDMs). The data set is classed as cell-based. To be noted: 100 μM, FIG. 6G.
Data set [3] relates to MDMs. The data set is classed as cell-based, human. To be noted: FIG. 6L, 6M.
Data set [4] relates to PMA-treated THP1 macrophages. Briefly: IL-10 secretion by PMA-treated THP1 macrophages. To be noted: 100 μM, FIG. 6J. The data set is classed as cell-based, human. The procedure: (§1) Plasma serum from P2y2^+/+ and P2y2^−/− mice and supernatants harvested from PMA-stimulated THP1 macrophages that were depleted or not for P2Y2 or NLRP3, and/or stimulated with 10 ng/mL LPS during 3 hours and 5 mM ATP during 6 hours or with 20 ng/mL IFNγ, in presence or in absence of 100 μM Suramin, 100 μM OxATP, 100 μM Kaempferol or 100 μM Diquafosol at indicated times were analyzed using western blot or ELISA for IL-1β (Ebioscience) and IL-10 (BD) according to the manufacturers' instructions.

The test system of data set [5] is MDMs. Kind of data set: Microarray of human macrophage polarization-specific markers in MDMs. The data set is classed as cell-based. To be noted: 100 μM, 72 hours, FIG. 6Q. The procedure: MDMS were treated with 100 μM Kaempferol during 72 hours. Then, mRNAs were isolated using RNeasy kit (#74104, Quiagen) and gene expression analyses were performed with Agilent® SurePrint G3 Human GE 8x60K Microarray (Agilent Technologies, AMADID 39494) with the following single-color design. RNAs were labeled with Cy3 using the one-color Agilent labeling kit (Low Input Quick Amp Labeling Kit 5190-2306) adapted for small amount of total RNA (100 ng total RNA per reaction). Hybridization were then performed on microarray using 800 ng of linearly amplified cRNA labeled, following the manufacturer protocol (Agilent SureHyb Chamber; 800 ng of labeled extract; duration of hybridization of 17 hours; 40 μL per array; Temperature of 65° C.). […] Microarray images were analyzed by means of Feature Extraction software version (10.7.3.1) from Agitent technologies. […]
Raw data files from Feature Extraction were imported into R with LIMMA (Smyth, 2004, Statistical applications in Genetics and molecular biology, vol 3, N°1, article 3), an R package from the Bioconductor project, and processed as follow: gMedianSignal data were imported, controls probes were systematically removed, and flagged probes (gisSaturated, glsFeatpopnOL, glsFeatNonUnifOL) were set to NA. […] Normalized data were then analyzed. […]

Data set [6] relates to PMA-differentiated THP1 macrophages. Briefly: LDH release from PMA-differentiated THP1 macrophages. The data set is classed as cell-based, human. The note with it: treated or not with LPS and ATP; FIG. 5H. (LDH leaks from cells whose membrane has failed.)
For data set [7], the system named is MDMs. Briefly: IL-10 secretion by MDMs. The data set is classed as cell-based, human. To be noted: 100 μM, FIG. 6K.
In data set [8] the test system is PMA-treated THP1 macrophages. Kind of data set: IL-1β release from LPS+ATP-stimulated PMA-THP1 macrophages (western blot/ELISA). The data set is classed as cell-based, human. To be noted: 100 μM compound; 10 ng/mL LPS 3 hours + 5 mM ATP 6 hours; FIG. 6E, 6I. The procedure: Human THP-1 cells were cultured in RPMI 1640 media, supplemented with 10% FBS and differentiated by treatment for 3 hours with 100 nM phorbol-12-myristate-13-acetate (PMA, Invivogen). After 2 days, macrophage THP-1 cells were stimulated first 3 hours with ultrapure LPS from E. coli (10 ng/ml, LPS) and then stimulated for 6 hours with ATP (5 mM, Sigma) or treated with 50 ng or 20 ng of IFNg during 24 or 12 hours as indicated. Then, supernatants and cells were collected for western blot analysis.
Cells or supernatant were lysed in appropriated buffer (250 mM NaCl, 0.1% NP-40, 5 mM EDTA, 10 mM Na3VO4, 10 mM NaF, 5 mM DTT, 3 mM Na4P2O7, 1 mM EGTA, 10 mM Glycerol phosphate, 10 mM Tris-Hcl (pH=7.5) and the protease and phosphatase inhibitors (Roche)). Equal amount of supernatant or 10-40 μg of protein extracts were run on 4-12% or 10% SDS-PAGE and transferred at 4° C. onto a nitrocellulose membrane (0.2 Micron). After incubation for 2 hours at room temperature with 5% nonfat milk or BSA (Bovine Serum Albumine) in Tris-buffered saline and 0.1% Tween 20 (TBS-Tween), membranes were incubated with primary antibody at 4° C. overnight. […] The primary antibodies against. […] Western blots shown are representative of at least of three independent experiments.
as §1

A further data set concerns the target T1, P2Y2-NLRP3 interaction (Homo sapiens, UniProt P41231).
T1 construct: Frequency of P2Y2-NLRP3 PLA+ cells detected after treatment of PMA-primed THP1 with 100 μM AR-C118925XX; endogenous in cells; host or cells: PMA-primed THP1 macrophages (ATCC)
Briefly: P2Y2-NLRP3 proximity ligation assay in PMA-primed THP1. The data set is classed as cell-based. To be noted: 100 μM, 96 hours; FIG. 10A.

Data set [9] deals with COVID-19 patients with severe inflammatory failure. The note with it: early administration; retrospective study, reference 51; cited from earlier work.
For data set [10], the system named is SARS-CoV-2. To be noted: reference 50; cited from earlier work.
Data set [11] has as its system SARS-CoV-2. The data set is classed as cell-based. The note with it: FIG. 7K.
The next data set has as its system ACE2-A549 cells. To be noted: ACE2-A549, 72 hours, MTT; PPADS and OxATP at 100 μM; BzATP indicated concentrations.
Data set [12] deals with SARS-CoV-2. The data set is classed as cell-based. To be noted: Vero E6, 24 hours, 50 μM PPADS, 100 μM OxATP.
The test system of data set [13] is ACE2. The data set is classed as cell-based, African green monkey. The note with it: Vero E6, 24 hours; 500 μM UTP, 100 μM Diquafosol, 5 μM Denufosol, 50 μM PPADS, 100 μM OxATP, 100 μM BzATP; FIG. 14A.
Data set [14] relates to ACE2. The data set is classed as cell-based. The note with it: ACE2-A549, 24 hours; same concentrations; FIG. 14B.
The test system of data set [15] is SARS-CoV-2. The data set is classed as cell-based. The note with it: Vero E6, 72 hours infection, MOI 1-2, indicated concentrations, MTT.
In the next data set the test system is Vero E6 cells. To be noted: Vero E6, 72 hours, MTT; PPADS and OxATP at 100 μM; BzATP indicated concentrations.

T1 sequence (P41231 whole entry): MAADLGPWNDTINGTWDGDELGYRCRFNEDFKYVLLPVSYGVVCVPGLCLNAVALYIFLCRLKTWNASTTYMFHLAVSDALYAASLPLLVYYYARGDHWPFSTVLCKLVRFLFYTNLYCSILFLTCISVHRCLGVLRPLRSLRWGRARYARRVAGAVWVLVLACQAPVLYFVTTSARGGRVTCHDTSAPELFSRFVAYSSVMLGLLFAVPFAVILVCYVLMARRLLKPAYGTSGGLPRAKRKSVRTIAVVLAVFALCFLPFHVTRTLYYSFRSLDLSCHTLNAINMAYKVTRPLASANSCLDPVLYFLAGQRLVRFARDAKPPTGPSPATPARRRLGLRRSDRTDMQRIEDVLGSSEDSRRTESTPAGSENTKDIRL

Turning to `O=c1c(O)c(-c2ccc(O)cc2)oc2cc(O)cc(O)c12` [Kaempferol], the “expression of IRF5” value with MDMs [1] is “increased expression of the pro-inflammatory transcription factor IFN regulatory factor 5 (IRF5)”. Besides, the IL-1β release entry in data set [2] and in data set [8] was “increased IL-1β release” in each case. The “membrane expression of CD163” value in the data set on MDMs [3] is “diminished membrane expression of anti-inflammatory macrophage activation marker CD163”. Besides, the “secretion of IL-10” value (in [4]; with MDMs [7]) was “reduced secretion of the immunosuppressive cytokine interleukin-10 (IL-10)” throughout. The “known human markers of macrophage activation induced” value with MDMs [5] is 90%. The “LDH release (cell death marker)” value in [6] is “released the cell death marker, lactate dehydrogenase (LDH)”.

For the compound `Cc1ccc2c(c1)C=Cc1cc(C)ccc1C2c1cn(Cc2ccc(C(=O)Nc3nn[nH]n3)o2)c(=O)[nH]c1=S` [AR-C118925XX], on P2Y2-NLRP3 interaction, the “P2Y2-NLRP3 interaction (frequency of PLA+ cells)” value was “enhanced the P2Y2-NLRP3 interaction”.

For the compound anakinra: IL-1 receptor antagonist, the “prognosis of COVID-19 patients” value in data set [9] is recorded as “significantly improved prognosis of COVID-19 patients with severe inflammatory failure”.

For the compound Ivermectin, the “replication of SARS-CoV-2 in vitro” value with SARS-CoV-2 [10] was “inhibit the replication of SARS-CoV-2 in vitro”.

For the compound `Nc1ncnc2c1ncn2[C@@H](C=O)O[C@@H](C=O)COP(=O)(O)OP(=O)(O)OP(=O)(O)O` [OxATP, oxidized ATP], the “intracellular expression of Spike” value with SARS-CoV-2 [11] (Vero E6, 24 hours, 50 μM PPADS, 100 μM OxATP, 100 μM BzATP) is listed as “reduced”. Besides, in the data set on SARS-CoV-2 [11] ([…], western blot), the “ACE2 expression in response to SARS-CoV-2 infection” value is “repressed ACE2 down regulation”. Moreover, the “viability of uninfected cells” value with ACE2-A549 cells and with Vero E6 cells was “partially affected viability” throughout. Besides, the “frequency of Spike-positive cells” value with SARS-CoV-2 [12] is reported as “reduced the frequency of Spike-positive cells”. Also, the ACE2 membrane expression entry with ACE2 [13] and in the data set with ACE2 [14] was “did not change” each time. The IL-1β release result in [8] is “reduced IL-1β release”. Further, the “cytopathogenicity / cytopathogenic effects of SARS-CoV-2” value in the data set with SARS-CoV-2 [15] was “reduced”.
